# Where two headings read alike, the source gives them in different places.
# Columns and labels:
# [1] = tested on: livers of nude mice; settings: appreciably larger doses of VK3; cited from earlier work
# [2] = tested on: tumor growth; settings: cited from earlier work
# [3] = cited from earlier work
# [4] = tested on: gastrointestinal cancer patients; settings: 43 patients; VK3 with mitomycin C; cited from earlier work
# [5] = tested on: advanced lung cancer patients; settings: VK3 with mitomycin C, cited from earlier work
# [6] = tested on: hepatoma; settings: 10 mg/2 mL i.p. weekly for 4 weeks, cited from earlier work
# [7] = tested on: humans; settings: cited from earlier work
# [8] = tested on: T24 Human Bladder Cancer Cells; test: MTT cytotoxicity assay against T24 cells; type: cell-based; settings: for IC50: Homo sapiens; for increase of cytotoxic potency in the combination over compound alone: VC/HT-1 200:1 after VC+VK3 pretreatment
# Experimental: After 1 or 2 days of incubation at 37° C. in humidified CO2 in air, a colorimetric MTT assay (see below) was performed to evaluate the number of remaining viable T24 cells in each well.
# The hydroxytolan HT-1 was dissolved in DMSO as 2 mM stock and was then subsequently diluted in MEM so that the final DMSO concentration in any well was <1%. Doubling dilutions of this stock solution were carried out as above.
# This assay measures the formation of a colored product produced from a chromogenic substrate, the tetrazole 3-[4,5-dimethylthiazol-2-yl]-2,5 diphenyltetrazolium bromide (“MTT”). The yellow MTT is reduced to purple formazan in the mitochondria of living cells. A solubilization solution (typically dimethyl sulfoxide or sodium dodecyl sulfate (SDS) in dilute hydrochloric acid) is added to dissolve the insoluble purple formazan product into a colored solution. The absorbance of this colored solution is quantified by measuring at a certain wavelength (usually between 500 and 600 nm) by a spectrophotometer. […] This MTT assay is used widely to assess the cytotoxicity and selectivity of compounds such as anti-cancer drugs. The assay is suitable for rapid toxicity characterization of a test agent such as a drug formulation.
# A lower CD50 indicates a greater cytotoxic activity (as a lower amount of the agent is needed to achieve a fixed level of cytotoxicity). Two agents can be compared by examining the fold-increase or decrease in their CD50 values.
# The CD50 values were interpolated from the curves generated using 12 serial dilutions. When individual compounds were used a single CD50 value is shown. When a combination of two compounds was used, the CD50 of both compounds is presented. Values shown are the mean±standard error of three experiments with six readings per experiment.
# [9] = tested on: terminal cancer patients; settings: cited from earlier work
# [10] = tested on: patients with advanced cancer; settings: 10 g oral VC; double-blind, placebo-controlled; cited from earlier work
# [11] = tested on: Mice; settings: daily 6.5 g/Kg for 6 weeks and 2 g/Kg for 2 years; cited from earlier work
# [12] = tested on: normal cells; settings: cited from earlier work
# [13] = T-24, 24 h, incubation time 1 day, compound alone, read-out: CD50 of compounds tested Individually
# [14] = T-24, 48 h, incubation time 2 days, compound alone, read-out: CD50 of compounds tested Individually
# [15] = T-24, read-out: CD50 of each compound tested in combination after pretreatment with VC and VK3, incubation time 1 day, VC:HT-1 200:1 mixture, 2 h pretreatment with 150 μM VC and 1.5 μM VK3
# [16] = T-24, read-out: CD50 of each compound tested in combination after pretreatment with VC and VK3, incubation time 2 days, VC:HT-1 200:1 mixture, 2 h pretreatment with 150 μM VC and 1.5 μM VK3
compound,measurement,setting,value
"CC1=CC(=O)c2ccccc2C1=O [VK3, 2-methyl-1,4-naphthoquinone]",hepatotoxicity,[1],no hepatotoxicity
same,inhibition of tumor growth,[2]; VK3 225 mg/kg/day with methotrexate,84%
same,inhibition of tumor growth,[2]; menadione 250 mg/kg/day with methotrexate 0.75 mg/kg/day,99%
same,water solubility,[3]; bisulfate form,water soluble
same,objective response,[4],no objective response
same,median survival,[5]; 23 patients,5.5 months
same,patients with hematologic toxicity,[5],30%
same,patients with some tumor regression,[5],26%
same,long term survivors,[6],5 out of 16
same,survival,[6]; controls 17 days,60 days
same,maximum tolerated dose,"[7]; 48-hour i.v. infusion, followed by mitomycin C every four weeks",2.5 g/m^2
same,toxicity,[7]; 400-500 mg/day over 3-5 consecutive days,without any appreciable toxicity
same,hemolysis,[7]; VK3 2.5 g/m^2 then mitomycin C 15 mg/m2 every four weeks,no hemolysis
"Oc1ccc(C#Cc2ccc(O)cc2)cc1 [HT-1, 4,4′-dihydroxytolan]",IC50,[8]; [13],21.5 µM
same,IC50,[8]; [14],10.5 ± 2.7 µM
same,IC50,[8]; [15],1.13 µM
same,IC50,[8]; [16],0.94 ± 0.55 µM
same,increase of cytotoxic potency in the combination over compound alone,[8]; after 1 day,about 19 fold
same,increase of cytotoxic potency in the combination over compound alone,[8]; after 2 days,about 11 fold
"O=C1O[C@H]([C@@H](O)CO)C([O-])=C1O.[Na+] [VC, sodium ascorbate]",mean survival time (MST),"[9]; 100 terminal cancer patients, 10 g/day i.v. for 10 days, then 10 g/day orally, controls 50 days",> 210 days
same,"MST, ovarian cancer subjects","[9]; six treated subjects with ovarian cancer, controls 71 days",148 days
same,effectiveness of oral VC,[10],no benefits
same,"mortality, weight changes, blood chemistry, hematology, histology, other pathologies",[11],no abnormal rates
same,IC50,[8]; [13],849 µM
same,IC50,[8]; [14],896 ± 59.8 µM
same,IC50,[8]; [15],226 µM
same,IC50,[8]; [16],187 ± 99 µM
"Oc1ccc(/C=C/c2cc(O)cc(O)c2)cc1 [resveratrol, 3,5,4′-trihydroxy-trans-stilbene]",toxicity to normal cells,[12],significantly toxic to normal cells
same,aqueous solubility,[3],relatively low aqueous solubility
